Experimental data reported in PubChem BioAssay AID1845198 (Molecular Pharmacology Branch, DTP, NCI, 2023).

Tested on: 425362-245-T-J1 tumor spheroids, viability % test/control
Test: Anticancer human tumor 425362-245-T-J1 patient-derived melanoma cell line growth inhibition
Settings: spheroids with HUVEC and MSC; for IC50: curve of first compound; for viability, T/C: stronger effect = lower value
How it was run: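 Single agents and combinations were tested on spheroids built from tumor cells plus HUVEC and hMSC, at half-log dilutions starting at or near clinical Cmax, else 10 microM; final DMSO 0.25% (v/v).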

[1] = second compound 30 pM, first compound 0.0316 µM
[2] = second compound 30 pM, first compound 0.1 µM
[3] = second compound 30 pM, first compound 0.316 µM
[4] = second compound 30 pM, first compound 1 µM
[5] = second compound 30 pM, first compound 3.16 µM
[6] = second compound 30 pM, first compound 10 µM
[7] = second compound 94.9 pM, first compound 0.0316 µM
[8] = second compound 94.9 pM, first compound 0.1 µM
[9] = second compound 94.9 pM, first compound 0.316 µM
[10] = second compound 94.9 pM, first compound 1 µM
[11] = second compound 94.9 pM, first compound 3.16 µM
[12] = second compound 94.9 pM, first compound 10 µM
[13] = second compound 0.0003 µM, first compound 0.0316 µM
[14] = second compound 0.0003 µM, first compound 0.1 µM
[15] = second compound 0.0003 µM, first compound 0.316 µM
[16] = second compound 0.0003 µM, first compound 1 µM
[17] = second compound 0.0003 µM, first compound 3.16 µM
[18] = second compound 0.0003 µM, first compound 10 µM
[19] = second compound 0.000949 µM, first compound 0.0316 µM
[20] = second compound 0.000949 µM, first compound 0.1 µM
[21] = second compound 0.000949 µM, first compound 0.316 µM
[22] = second compound 0.000949 µM, first compound 1 µM
[23] = second compound 0.000949 µM, first compound 3.16 µM
[24] = second compound 0.000949 µM, first compound 10 µM
[25] = second compound 0.003 µM, first compound 0.0316 µM
[26] = second compound 0.003 µM, first compound 0.1 µM
[27] = second compound 0.003 µM, first compound 0.316 µM
[28] = second compound 0.003 µM, first compound 1 µM
[29] = second compound 0.003 µM, first compound 3.16 µM
[30] = second compound 0.003 µM, first compound 10 µM
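Further: spheroids exposed to agents for 7 days.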
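Wherever viability, T/C is given: 100% = DMSO vehicle control viability.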

**Q.** `COc1cc(C)[nH]c(=O)c1CN1CCc2c(Cl)cc(C(OC)C3COC3)c(Cl)c2C1=O` (stereo not given) + COc1cc2c(cc1O)CCNC21CSC2c3c(OC(C)=O)c(C)c4c(c3C(COC1=O)N1C(O)C3Cc5cc(C)c(OC)c(O)c5C(C21)N3C)OCO4 was tested. Which IC50 (second compound 30 pM) did it give?
**A.** > 10000 nM

**Q.** What about the IC50 (second compound 94.9 pM) of the same compound?
**A.** > 10000 nM

**Q.** And the IC50 (second compound 0.0003 µM)?
**A.** 362 nM

**Q.** And the IC50 (second compound 0.000949 µM)?
**A.** < 31.6 nM

**Q.** And the IC50 (second compound 0.003 µM)?
**A.** < 31.6 nM

**Q.** And the viability, T/C [1]?
**A.** 104%

**Q.** And the viability, T/C [2]?
**A.** 104%

**Q.** What about the viability, T/C [3] of the same compound?
**A.** 100%

**Q.** What about the viability, T/C [4] of the same compound?
**A.** 99.2%

**Q.** And the viability, T/C [5]?
**A.** 86.5%

**Q.** And the viability, T/C [6]?
**A.** 92.5%

**Q.** What about the viability, T/C [7] of the same compound?
**A.** 98.4%

**Q.** And the viability, T/C [8]?
**A.** 93.9%

**Q.** And the viability, T/C [9]?
**A.** 98.7%

**Q.** What about the viability, T/C [10] of the same compound?
**A.** 95.1%

**Q.** What about the viability, T/C [11] of the same compound?
**A.** 87%

**Q.** And the viability, T/C [12]?
**A.** 74.2%

**Q.** And the viability, T/C [13]?
**A.** 68%

**Q.** And the viability, T/C [14]?
**A.** 48.1%

**Q.** And the viability, T/C [15]?
**A.** 60.5%

**Q.** What about the viability, T/C [16] of the same compound?
**A.** 40.5%

**Q.** What about the viability, T/C [17] of the same compound?
**A.** 30.2%

**Q.** What about the viability, T/C [18] of the same compound?
**A.** 23.1%

**Q.** What about the viability, T/C [19] of the same compound?
**A.** 0.53%

**Q.** And the viability, T/C [20]?
**A.** 0.46%

**Q.** And the viability, T/C [21]?
**A.** 1.6%

**Q.** And the viability, T/C [22]?
**A.** 0.35%

**Q.** And the viability, T/C [23]?
**A.** 0.31%

**Q.** What about the viability, T/C [24] of the same compound?
**A.** 0.31%

**Q.** And the viability, T/C [25]?
**A.** 0.35%

**Q.** And the viability, T/C [26]?
**A.** 0.38%

**Q.** What about the viability, T/C [27] of the same compound?
**A.** 0.36%

**Q.** What about the viability, T/C [28] of the same compound?
**A.** 0.31%

**Q.** What about the viability, T/C [29] of the same compound?
**A.** 0.29%

**Q.** What about the viability, T/C [30] of the same compound?
**A.** 0.35%

**Q.** For `Cc1cc(C)c(CNC(=O)c2cc(-c3ccc(CN4CCOCC4)cc3)cc3c2cnn3C2CCCC2)c(=O)[nH]1` + COc1cc2c(cc1O)CCNC21CSC2c3c(OC(C)=O)c(C)c4c(c3C(COC1=O)N1C(O)C3Cc5cc(C)c(OC)c(O)c5C(C21)N3C)OCO4, which IC50 (second compound 30 pM) is on record?
**A.** > 10000 nM

**Q.** What about the IC50 (second compound 94.9 pM) of the same compound?
**A.** > 10000 nM

**Q.** What about the IC50 (second compound 0.0003 µM) of the same compound?
**A.** < 31.6 nM

**Q.** And the IC50 (second compound 0.000949 µM)?
**A.** < 31.6 nM

**Q.** What about the IC50 (second compound 0.003 µM) of the same compound?
**A.** < 31.6 nM

**Q.** And the viability, T/C [1]?
**A.** 81.9%

**Q.** What about the viability, T/C [2] of the same compound?
**A.** 97.4%

**Q.** And the viability, T/C [3]?
**A.** 97.5%

**Q.** What about the viability, T/C [4] of the same compound?
**A.** 102%

**Q.** What about the viability, T/C [5] of the same compound?
**A.** 85.7%

**Q.** And the viability, T/C [6]?
**A.** 61.4%

**Q.** And the viability, T/C [7]?
**A.** 84.3%

**Q.** And the viability, T/C [8]?
**A.** 87.3%

**Q.** What about the viability, T/C [9] of the same compound?
**A.** 92.9%

**Q.** And the viability, T/C [10]?
**A.** 88.2%

**Q.** And the viability, T/C [11]?
**A.** 81.9%

**Q.** And the viability, T/C [12]?
**A.** 64.3%

**Q.** And the viability, T/C [13]?
**A.** 44.9%

**Q.** And the viability, T/C [14]?
**A.** 40%

**Q.** And the viability, T/C [15]?
**A.** 59.9%

**Q.** And the viability, T/C [16]?
**A.** 39.5%

**Q.** And the viability, T/C [17]?
**A.** 34.4%

**Q.** And the viability, T/C [18]?
**A.** 25.5%

**Q.** And the viability, T/C [19]?
**A.** 0.31%

**Q.** And the viability, T/C [20]?
**A.** 0.35%

**Q.** And the viability, T/C [21]?
**A.** 0.34%

**Q.** What about the viability, T/C [22] of the same compound?
**A.** 0.33%

**Q.** What about the viability, T/C [23] of the same compound?
**A.** 0.21%

**Q.** And the viability, T/C [24]?
**A.** 0.26%

**Q.** And the viability, T/C [25]?
**A.** 0.3%

**Q.** What about the viability, T/C [26] of the same compound?
**A.** 0.32%

**Q.** And the viability, T/C [27]?
**A.** 0.3%

**Q.** And the viability, T/C [28]?
**A.** 0.25%

**Q.** What about the viability, T/C [29] of the same compound?
**A.** 0.25%

**Q.** What about the viability, T/C [30] of the same compound?
**A.** 0.26%

**Q.** How did the IC50 (second compound 30 pM) turn out when `[2H]c1nc(C)nc([2H])c1-c1cc(NC[C@@H](C)c2cccc3c(C(=O)NC)ccnc23)ncn1` + COc1cc2c(cc1O)CCNC21CSC2c3c(OC(C)=O)c(C)c4c(c3C(COC1=O)N1C(O)C3Cc5cc(C)c(OC)c(O)c5C(C21)N3C)OCO4 was run?
**A.** > 10000 nM

**Q.** And the IC50 (second compound 94.9 pM)?
**A.** > 10000 nM

**Q.** And the IC50 (second compound 0.0003 µM)?
**A.** 72.7 nM

**Q.** What about the IC50 (second compound 0.000949 µM) of the same compound?
**A.** < 31.6 nM

**Q.** What about the IC50 (second compound 0.003 µM) of the same compound?
**A.** < 31.6 nM

**Q.** And the viability, T/C [1]?
**A.** 91.2%

**Q.** And the viability, T/C [2]?
**A.** 106%

**Q.** What about the viability, T/C [3] of the same compound?
**A.** 100%

**Q.** And the viability, T/C [4]?
**A.** 101%

**Q.** What about the viability, T/C [5] of the same compound?
**A.** 90.8%

**Q.** And the viability, T/C [6]?
**A.** 92.1%

**Q.** And the viability, T/C [7]?
**A.** 89.7%

**Q.** What about the viability, T/C [8] of the same compound?
**A.** 90.1%

**Q.** And the viability, T/C [9]?
**A.** 92.3%

**Q.** And the viability, T/C [10]?
**A.** 91.5%

**Q.** And the viability, T/C [11]?
**A.** 83.1%

**Q.** What about the viability, T/C [12] of the same compound?
**A.** 82.5%

**Q.** And the viability, T/C [13]?
**A.** 51%

**Q.** What about the viability, T/C [14] of the same compound?
**A.** 54.6%

**Q.** And the viability, T/C [15]?
**A.** 43.2%

**Q.** What about the viability, T/C [16] of the same compound?
**A.** 40.4%

**Q.** And the viability, T/C [17]?
**A.** 50.2%

**Q.** And the viability, T/C [18]?
**A.** 41.5%

**Q.** What about the viability, T/C [19] of the same compound?
**A.** 0.44%

**Q.** What about the viability, T/C [20] of the same compound?
**A.** 0.45%

**Q.** And the viability, T/C [21]?
**A.** 1.41%

**Q.** And the viability, T/C [22]?
**A.** 0.35%

**Q.** And the viability, T/C [23]?
**A.** 0.23%

**Q.** And the viability, T/C [24]?
**A.** 0.31%

**Q.** What about the viability, T/C [25] of the same compound?
**A.** 0.18%

**Q.** And the viability, T/C [26]?
**A.** 0.2%

**Q.** What about the viability, T/C [27] of the same compound?
**A.** 0.14%

**Q.** And the viability, T/C [28]?
**A.** 0.12%

**Q.** What about the viability, T/C [29] of the same compound?
**A.** 0.13%

**Q.** And the viability, T/C [30]?
**A.** 0.25%
